Test results from ChEMBL document CHEMBL1201862, “PubChem BioAssay data set” (2004).
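Tested at 5 concentrations; 48 h exposure; 96-well plates; endpoints linearly interpolated, else capped at highest concentration. GI50 marks 50% less growth.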 Activity calls are given as the source filed them. No stated cut-off is given here; in the data, active = GI50 up to about 1.1 µM and inactive = higher.

Key:
Assay in all cases: inhibition of tumour cell growth, NCI panel, 48 h
[1] = test system: A549
[2] = test system: OVCAR-3
[3] = test system: DLD-1
[4] = test system: MOLT-4
[5] = test system: ACHN
[6] = test system: SR
[7] = test system: U-251
[8] = test system: XF498
[9] = test system: NCI-H460
[10] = test system: SW-620
[11] = test system: M14
[12] = test system: SF-295
[13] = test system: RPMI-8226
[14] = test system: M19-MEL
[15] = test system: SNB-75
[16] = test system: SK-MEL-2
[17] = test system: HOP-62
[18] = test system: A498
[19] = test system: OVCAR-8
[20] = test system: HOP-18
[21] = test system: K562
[22] = test system: HT-29
[23] = test system: COLO 205
[24] = test system: LOX IMVI
[25] = test system: SF-268
[26] = test system: UACC-257
[27] = test system: SNB-19
[28] = test system: NCI-H522
[29] = test system: EKVX
[30] = test system: CAKI-1
[31] = test system: OVCAR-4
[32] = test system: HCC 2998
[33] = test system: SK-MEL-5
[34] = test system: NCI-H226
[35] = test system: SK-OV-3
[36] = test system: Malme-3M
[37] = test system: SF-539
[38] = test system: IGROV-1
[39] = test system: DMS-114
[40] = test system: 786-0
[41] = test system: TK-10
[42] = test system: HCT-15
[43] = test system: DMS-273
[44] = test system: HL-60
[45] = test system: LXFL 529
[46] = test system: UACC-62
[47] = test system: CCRF-CEM
[48] = test system: HCT-116
[49] = test system: SK-MEL-28
[50] = test system: NCI-H23
[51] = test system: OVCAR-5
[52] = test system: SNB-78
[53] = test system: UO-31
[54] = test system: HOP-92
[55] = test system: KM12
[56] = test system: SN12C
[57] = test system: KM-20L2

**Q.** Which GI50 [1] does the source give for C#CCC(N)(CO)C(=O)O (centres undefined) here?
**A.** Its GI50 is > 100 µM (inactive).

**Q.** What about the GI50 [2] of the same compound?
**A.** Its GI50 is > 100 µM (inactive).

**Q.** And the GI50 [3]?
**A.** Its GI50 is > 100 µM (inactive).

**Q.** What about the GI50 [4] of the same compound?
**A.** The GI50 was > 100 µM (inactive).

**Q.** What about the GI50 [5] of the same compound?
**A.** The GI50 was > 100 µM (inactive).

**Q.** What about the GI50 [6] of the same compound?
**A.** The GI50 was > 100 µM (inactive).

**Q.** And the GI50 [7]?
**A.** Its GI50 is > 100 µM (inactive).

**Q.** What about the GI50 [8] of the same compound?
**A.** The GI50 was > 100 µM (inactive).

**Q.** And the GI50 [9]?
**A.** Its GI50 is > 100 µM (inactive).

**Q.** What about the GI50 [10] of the same compound?
**A.** Its GI50 is > 100 µM (inactive).

**Q.** And the GI50 [11]?
**A.** Its GI50 is > 100 µM (inactive).

**Q.** What about the GI50 [12] of the same compound?
**A.** The GI50 was > 100 µM (inactive).

**Q.** And the GI50 [13]?
**A.** Its GI50 is > 100 µM (inactive).

**Q.** What about the GI50 [14] of the same compound?
**A.** The GI50 was > 100 µM (inactive).

**Q.** And the GI50 [15]?
**A.** Its GI50 is 82.6 µM (inactive).

**Q.** And the GI50 [16]?
**A.** The GI50 was > 100 µM (inactive).

**Q.** What about the GI50 [17] of the same compound?
**A.** Its GI50 is > 100 µM (inactive).

**Q.** And the GI50 [18]?
**A.** Its GI50 is > 100 µM (inactive).

**Q.** What about the GI50 [19] of the same compound?
**A.** The GI50 was > 100 µM (inactive).

**Q.** What about the GI50 [20] of the same compound?
**A.** Its GI50 is > 100 µM (inactive).

**Q.** And the GI50 [21]?
**A.** Its GI50 is > 100 µM (inactive).

**Q.** And the GI50 [22]?
**A.** The GI50 was > 100 µM (inactive).

**Q.** What about the GI50 [23] of the same compound?
**A.** Its GI50 is > 100 µM (inactive).

**Q.** And the GI50 [24]?
**A.** The GI50 was > 100 µM (inactive).

**Q.** And the GI50 [25]?
**A.** Its GI50 is > 100 µM (inactive).

**Q.** What about the GI50 [26] of the same compound?
**A.** Its GI50 is > 100 µM (inactive).

**Q.** And the GI50 [27]?
**A.** Its GI50 is > 100 µM (inactive).

**Q.** What about the GI50 [28] of the same compound?
**A.** Its GI50 is > 100 µM (inactive).

**Q.** And the GI50 [29]?
**A.** The GI50 was > 100 µM (inactive).

**Q.** What about the GI50 [30] of the same compound?
**A.** The GI50 was > 100 µM (inactive).

**Q.** What about the GI50 [31] of the same compound?
**A.** The GI50 was > 100 µM (inactive).

**Q.** And the GI50 [32]?
**A.** The GI50 was > 100 µM (inactive).

**Q.** What about the GI50 [33] of the same compound?
**A.** The GI50 was > 100 µM (inactive).

**Q.** What about the GI50 [34] of the same compound?
**A.** The GI50 was > 100 µM (inactive).

**Q.** What about the GI50 [35] of the same compound?
**A.** The GI50 was > 100 µM (inactive).

**Q.** What about the GI50 [36] of the same compound?
**A.** The GI50 was > 100 µM (inactive).

**Q.** And the GI50 [37]?
**A.** Its GI50 is > 100 µM (inactive).

**Q.** And the GI50 [38]?
**A.** The GI50 was > 100 µM (inactive).

**Q.** And the GI50 [39]?
**A.** Its GI50 is > 100 µM (inactive).

**Q.** What about the GI50 [40] of the same compound?
**A.** The GI50 was > 100 µM (inactive).

**Q.** And the GI50 [41]?
**A.** Its GI50 is > 100 µM (inactive).

**Q.** And the GI50 [42]?
**A.** The GI50 was > 100 µM.

**Q.** And the GI50 [43]?
**A.** The GI50 was > 100 µM (inactive).

**Q.** And the GI50 [44]?
**A.** Its GI50 is > 100 µM (inactive).

**Q.** What about the GI50 [45] of the same compound?
**A.** Its GI50 is > 100 µM (inactive).

**Q.** And the GI50 [46]?
**A.** The GI50 was > 100 µM (inactive).

**Q.** What about the GI50 [47] of the same compound?
**A.** The GI50 was > 10 µM (inactive).

**Q.** And the GI50 [48]?
**A.** Its GI50 is > 100 µM (inactive).

**Q.** And the GI50 [49]?
**A.** The GI50 was > 100 µM (inactive).

**Q.** And the GI50 [50]?
**A.** Its GI50 is > 100 µM (inactive).

**Q.** And the GI50 [51]?
**A.** The GI50 was > 100 µM (inactive).

**Q.** And the GI50 [52]?
**A.** Its GI50 is > 100 µM (inactive).

**Q.** What about the GI50 [53] of the same compound?
**A.** Its GI50 is > 100 µM (inactive).

**Q.** And the GI50 [54]?
**A.** Its GI50 is > 100 µM (inactive).

**Q.** And the GI50 [55]?
**A.** The GI50 was > 100 µM (inactive).

**Q.** What does the source list for O=c1cccccc1O.O=c1cccccc1O.O=c1cccccc1O.[SiH4]?
**A.** GI50 [1]: 25.6 µM (inactive); GI50 [2]: 24.2 µM (inactive); GI50 [3]: 6.43 µM (inactive); GI50 [4]: 5.74 µM (inactive); GI50 [5]: 10 µM (inactive); GI50 [56]: 25.3 µM (inactive); GI50 [57]: 3.75 µM (inactive); GI50 [7]: 21.3 µM (inactive); GI50 [8]: 17.7 µM (inactive); GI50 [10]: 10.4 µM (inactive); GI50 [11]: 33.5 µM (inactive); GI50 [12]: 41.2 µM (inactive); GI50 [13]: 9.73 µM (inactive); GI50 [14]: 18.8 µM (inactive); GI50 [15]: 29.1 µM (inactive); GI50 [17]: 28.4 µM (inactive); GI50 [18]: 34.4 µM (inactive); GI50 [19]: 11.5 µM (inactive); GI50 [20]: 65.9 µM (inactive); GI50 [21]: 6.87 µM (inactive); GI50 [22]: 33.4 µM (inactive); GI50 [23]: 11 µM (inactive); GI50 [25]: 42.9 µM (inactive); GI50 [26]: 21 µM (inactive); GI50 [27]: > 100 µM (inactive); GI50 [28]: 2.33 µM (inactive); GI50 [29]: < 0.01 µM (active); GI50 [30]: 56.2 µM (inactive); GI50 [31]: 11.9 µM (inactive); GI50 [32]: 32.4 µM (inactive); GI50 [33]: 24.8 µM (inactive); GI50 [35]: 31.8 µM (inactive); GI50 [36]: 54.6 µM (inactive); GI50 [37]: 18.3 µM (inactive); GI50 [38]: 12.8 µM (inactive); GI50 [39]: 11.7 µM (inactive); GI50 [40]: 33 µM (inactive); GI50 [41]: 74 µM (inactive); GI50 [43]: 14.5 µM (inactive); GI50 [45]: 18.8 µM (inactive); GI50 [46]: 0.822 µM (active); GI50 [47]: 2.64 µM (inactive); GI50 [48]: 13.6 µM (inactive); GI50 [49]: 55.1 µM (inactive); GI50 [50]: 16.5 µM (inactive); GI50 [51]: 28.6 µM (inactive); GI50 [53]: 25.2 µM (inactive); GI50 [54]: 37.9 µM (inactive); GI50 [55]: 26.8 µM (inactive)
